Assay results from EPA's ToxRefDB 2.

Tests used:
rat [1] = details: Multigenerational reproductive toxicity study, sprague dawley, Inhalation, Whole-Body, dose end: 2 generation
rat [2] = details: Prenatal developmental toxicity study, sprague dawley, Inhalation, Whole-Body, dose end: 19 GD, group: maternal
mouse [3] = details: Prenatal developmental toxicity study, cd1, Oral, Gavage/Intubation, dose end: 15 GD
rat [4] = details: Multigenerational reproductive toxicity study, sprague dawley, Oral, Water, dose end: 2 generation
rat [5] = details: Carcinogenicity, fischer, Oral, Water, dose end: 103 week, group: systemic
mouse [6] = details: Carcinogenicity, b6c3f1, Oral, Water, dose end: 103 week, group: systemic
[7] = group: offspring, systemic / organ weight / kidney / nos + systemic / in life observation / body weight / offspring (pup) weight + developmental / …
[8] = group: parental, systemic / pathology gross / lung / discolored
[9] = group: reproductive, reproductive / offspring survival early / birth index / live birth index + reproductive / reproductive performance / estrous cycle / corpora…
[10] = systemic / in life observation / body weight / body weight gain + systemic / in life observation / body weight / body weight + systemic / in…
[11] = group: developmental, developmental / developmental malformation / mouth / jaw / cleft palate + systemic / in life observation / body weight / fetal weight
[12] = group: maternal, systemic / in life observation / body weight / body weight + systemic / in life observation / body weight / body weight gain + systemic / in…
[13] = group: offspring, developmental / developmental landmark / preputial separation / preputial separation + systemic / in life observation / body weight / …
[14] = group: parental, systemic / in life observation / body weight / body weight + systemic / in life observation / body weight / body weight gain + systemic / in…
[15] = group: parental, systemic / in life observation / clinical signs / red or crusty deposits around eyes, ears, nose, or mouth + systemic / in life observation…
[16] = group: reproductive, reproductive / offspring survival early / dead fetuses / dead fetuses
[17] = systemic / in life observation / body weight / body weight + systemic / in life observation / water consumption / water consumption + …
[18] = systemic / pathology microscopic / adrenal gland / pheochromocytoma nos + systemic / pathology microscopic / bone marrow / leukemia + …
[19] = systemic / in life observation / body weight / body weight + systemic / in life observation / water consumption / water consumption
[20] = systemic / pathology microscopic / uterus / interstitial stromal tumor + systemic / in life observation / body weight / body weight + …

For CI [Methyl iodide], the LEL (rat [1]; [7]) was 5 ppm, the LOAEL (rat [1]; [7]) was 5 ppm and the NEL (rat [1]; [7]) was < 5 ppm. The NOAEL (rat [1]; [7]) was < 5 ppm, the LEL (rat [1]; [8]) was 5 ppm and the LOAEL (rat [1]; [8]) was 5 ppm. The NEL (rat [1]; [8]) was < 5 ppm, the NOAEL (rat [1]; [8]) was < 5 ppm and the LEL (rat [1]; [9]) was 50 ppm. For the same molecule, the LOAEL (rat [1]; [9]) was 50 ppm, the NEL (rat [1]; [9]) was 20 ppm and the NOAEL (rat [1]; [9]) was 20 ppm. It also gave an LOAEL (rat [2]; systemic / in life observation / body weight / body weight gain) of 60 ppm, an LEL (rat [2]; [10]) of 60 ppm and an NEL (rat [2]; [10]) of 20 ppm. The NOAEL (rat [2]; [10]) was 20 ppm.

For Oc1ccccc1 [Phenol], the LEL (mouse [3]; [11]) was 280 mg/kg/day, the LOAEL (mouse [3]; [11]) was > 280 mg/kg/day and the NEL (mouse [3]; [11]) was 140 mg/kg/day. For the same molecule, the NOAEL (mouse [3]; [11]) was ≥ 280 mg/kg/day, the LEL (mouse [3]; [12]) was 280 mg/kg/day and the LOAEL (mouse [3]; [12]) was > 280 mg/kg/day. For the same molecule, the NEL (mouse [3]; [12]) was 140 mg/kg/day, the NOAEL (mouse [3]; [12]) was ≥ 280 mg/kg/day and the LEL (rat [4]; [13]) was 318 mg/kg/day. For the same molecule, the LOAEL (rat [4]; [13]) was > 318 mg/kg/day, the NEL (rat [4]; [13]) was 69.8 mg/kg/day and the NOAEL (rat [4]; [13]) was ≥ 318 mg/kg/day. The LOAEL (rat [4]; [14]) was > 301 mg/kg/day, the NOAEL (rat [4]; [14]) was ≥ 301 mg/kg/day and the LEL (rat [4]; [15]) was 13.5 mg/kg/day. The NEL (rat [4]; [15]) was < 13.5 mg/kg/day, the LEL (rat [4]; [16]) was 318 mg/kg/day and the LOAEL (rat [4]; [16]) was > 318 mg/kg/day. The NEL (rat [4]; [16]) was 69.8 mg/kg/day, the NOAEL (rat [4]; [16]) was ≥ 318 mg/kg/day and the LOAEL (rat [5]; [17]) was > 250 mg/kg/day. The NOAEL (rat [5]; [17]) was ≥ 250 mg/kg/day, the LEL (rat [5]; [18]) was 125 mg/kg/day and the NEL (rat [5]; [18]) was < 125 mg/kg/day. For the same molecule, the LEL (mouse [6]; [19]) was 375 mg/kg/day, the NEL (mouse [6]; [19]) was < 375 mg/kg/day and the LOAEL (mouse [6]; [20]) was > 750 mg/kg/day. The NOAEL (mouse [6]; [20]) was ≥ 750 mg/kg/day.
